Values of other authors as cited in patent publication US7563785B2, “Quetiapine analogs and methods of use thereof” (Hypnion, Inc., priority 2004, dated 2009).

Biological target: T1, human recombinant M1 expressed in CHO cells (Homo sapiens, UniProt P11229)
T1 construct: purchased PerkinElmer, Inc., Wellesley, Mass; host or cells: CHO cells
T1 sequence (P11229 1-460): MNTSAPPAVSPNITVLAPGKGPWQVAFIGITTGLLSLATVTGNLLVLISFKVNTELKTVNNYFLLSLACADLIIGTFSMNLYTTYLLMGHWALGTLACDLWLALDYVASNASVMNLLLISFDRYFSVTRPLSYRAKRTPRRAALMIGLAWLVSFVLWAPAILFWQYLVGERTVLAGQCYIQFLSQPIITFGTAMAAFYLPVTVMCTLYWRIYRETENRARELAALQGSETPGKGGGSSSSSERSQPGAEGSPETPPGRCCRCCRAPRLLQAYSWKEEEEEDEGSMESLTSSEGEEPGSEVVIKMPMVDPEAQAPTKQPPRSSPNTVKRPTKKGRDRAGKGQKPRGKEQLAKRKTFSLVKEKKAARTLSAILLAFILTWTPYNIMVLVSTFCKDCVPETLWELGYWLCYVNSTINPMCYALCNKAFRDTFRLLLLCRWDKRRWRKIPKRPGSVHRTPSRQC
Conditions: reference compounds; read-out: Ki of reference compounds in M1 binding assay

In the case of `C[N+]1(C)CCC(OC(=O)C(c2ccccc2)c2ccccc2)CC1` [4-DAMP methiodide], the Ki is listed as 0.27 nM.
